# Experimental data: patent US9745311B2, “Substituted pyrrolo[2,3-b]pyrazines as FGFR inhibitors” (Incyte Corporation, priority 2012, dated 2017)
# Like-named read-outs stand apart in the source and are kept apart here.
# Assays:
# FGFR2 = FGFR2 (Homo sapiens (Human), UniProt P21802); assay: FGFR Enzymatic Assay (FGFR2); type: biochemical;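 further: FRET read-out of peptide phosphorylation by the purified kinase, with enzyme-free blank and uninhibited enzyme as controls, potency from a variable-slope sigmoidal dose-response fit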
# Sequence of FGFR2 (P21802 22-821): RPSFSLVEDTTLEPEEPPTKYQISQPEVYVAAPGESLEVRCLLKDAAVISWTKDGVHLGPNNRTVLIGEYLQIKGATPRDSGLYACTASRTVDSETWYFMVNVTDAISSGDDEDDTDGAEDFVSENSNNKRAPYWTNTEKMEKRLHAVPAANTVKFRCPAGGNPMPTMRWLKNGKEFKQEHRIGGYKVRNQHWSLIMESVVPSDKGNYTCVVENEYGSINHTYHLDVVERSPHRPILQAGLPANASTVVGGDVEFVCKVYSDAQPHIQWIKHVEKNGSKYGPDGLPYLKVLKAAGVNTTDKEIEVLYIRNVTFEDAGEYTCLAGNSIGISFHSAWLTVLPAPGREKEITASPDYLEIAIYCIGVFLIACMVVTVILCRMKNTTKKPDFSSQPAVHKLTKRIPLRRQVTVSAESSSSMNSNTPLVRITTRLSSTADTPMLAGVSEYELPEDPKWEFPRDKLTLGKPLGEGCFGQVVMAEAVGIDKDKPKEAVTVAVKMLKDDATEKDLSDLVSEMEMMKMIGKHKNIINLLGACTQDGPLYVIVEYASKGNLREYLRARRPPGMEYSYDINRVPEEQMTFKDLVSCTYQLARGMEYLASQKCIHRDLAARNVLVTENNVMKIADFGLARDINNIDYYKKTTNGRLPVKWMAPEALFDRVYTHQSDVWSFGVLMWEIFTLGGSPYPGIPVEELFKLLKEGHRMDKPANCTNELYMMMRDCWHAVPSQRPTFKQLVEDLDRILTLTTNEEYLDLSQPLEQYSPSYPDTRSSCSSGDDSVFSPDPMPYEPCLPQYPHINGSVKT
# FGFR3 enzyme (Millipore) = FGFR3 enzyme (Millipore) (Homo sapiens (Human), UniProt P22607); assay: biochemical
# Sequence of FGFR3 enzyme (Millipore) (P22607 23-806): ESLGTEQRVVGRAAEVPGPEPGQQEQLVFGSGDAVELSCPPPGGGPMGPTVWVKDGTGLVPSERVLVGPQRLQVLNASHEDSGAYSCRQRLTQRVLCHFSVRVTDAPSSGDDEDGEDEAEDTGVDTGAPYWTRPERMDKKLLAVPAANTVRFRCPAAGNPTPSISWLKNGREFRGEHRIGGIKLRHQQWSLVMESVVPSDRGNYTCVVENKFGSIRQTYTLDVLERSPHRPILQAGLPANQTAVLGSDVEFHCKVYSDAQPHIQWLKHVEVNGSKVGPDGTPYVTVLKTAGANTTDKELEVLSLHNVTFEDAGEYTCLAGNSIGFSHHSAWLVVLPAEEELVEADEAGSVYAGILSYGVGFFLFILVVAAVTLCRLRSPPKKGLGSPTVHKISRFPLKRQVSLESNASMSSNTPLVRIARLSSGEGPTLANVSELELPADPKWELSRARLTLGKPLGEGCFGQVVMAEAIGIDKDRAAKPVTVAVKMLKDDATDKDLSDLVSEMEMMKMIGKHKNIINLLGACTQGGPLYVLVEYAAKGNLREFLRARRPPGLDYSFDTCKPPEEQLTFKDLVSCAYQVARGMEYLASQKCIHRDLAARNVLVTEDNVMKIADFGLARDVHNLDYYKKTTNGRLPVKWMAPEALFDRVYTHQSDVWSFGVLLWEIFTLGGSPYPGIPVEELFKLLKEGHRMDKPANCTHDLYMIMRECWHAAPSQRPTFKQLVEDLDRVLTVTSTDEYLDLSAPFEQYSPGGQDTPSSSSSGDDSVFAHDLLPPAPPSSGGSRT
# Description: The inhibitor potency of compounds was measured in an enzyme assay that measures peptide phosphorylation using FRET measurements to detect product formation. Inhibitors were serially diluted in DMSO and a volume of 0.5 μL was transferred to the wells of a 384-well plate. For FGFR3, a 10 μL volume of FGFR3 enzyme (Millipore) diluted in assay buffer (50 mM HEPES, 10 mM MgCl2, 1 mM EGTA, 0.01% Tween-20, 5 mM DTT, pH 7.5) was added to the plate and pre-incubated for 5-10 minutes. Appropriate controls (enzyme blank and enzyme with no inhibitor) were included on the plate. […] The plate was incubated at 25° C. for 1 hr. […] The plate was allowed to equilibrate for ˜1 hr before scanning the wells on a PheraStar plate reader.
# GraphPad prism3 was used to analyze the data. The IC50 values were derived by fitting the data to the equation for a sigmoidal dose-response with a variable slope. Y=Bottom+(Top−Bottom)/(1+10^((Log IC50−X)*HillSlope)) where X is the logarithm of concentration and Y is the response.
# FGFR1 = FGFR1 (Homo sapiens (Human), UniProt P11362); assay: FGFR Enzymatic Assay (FGFR1); type: biochemical; conditions: enzyme 0.02 nM, ATP 210 μM
# Sequence of FGFR1 (P11362 22-822): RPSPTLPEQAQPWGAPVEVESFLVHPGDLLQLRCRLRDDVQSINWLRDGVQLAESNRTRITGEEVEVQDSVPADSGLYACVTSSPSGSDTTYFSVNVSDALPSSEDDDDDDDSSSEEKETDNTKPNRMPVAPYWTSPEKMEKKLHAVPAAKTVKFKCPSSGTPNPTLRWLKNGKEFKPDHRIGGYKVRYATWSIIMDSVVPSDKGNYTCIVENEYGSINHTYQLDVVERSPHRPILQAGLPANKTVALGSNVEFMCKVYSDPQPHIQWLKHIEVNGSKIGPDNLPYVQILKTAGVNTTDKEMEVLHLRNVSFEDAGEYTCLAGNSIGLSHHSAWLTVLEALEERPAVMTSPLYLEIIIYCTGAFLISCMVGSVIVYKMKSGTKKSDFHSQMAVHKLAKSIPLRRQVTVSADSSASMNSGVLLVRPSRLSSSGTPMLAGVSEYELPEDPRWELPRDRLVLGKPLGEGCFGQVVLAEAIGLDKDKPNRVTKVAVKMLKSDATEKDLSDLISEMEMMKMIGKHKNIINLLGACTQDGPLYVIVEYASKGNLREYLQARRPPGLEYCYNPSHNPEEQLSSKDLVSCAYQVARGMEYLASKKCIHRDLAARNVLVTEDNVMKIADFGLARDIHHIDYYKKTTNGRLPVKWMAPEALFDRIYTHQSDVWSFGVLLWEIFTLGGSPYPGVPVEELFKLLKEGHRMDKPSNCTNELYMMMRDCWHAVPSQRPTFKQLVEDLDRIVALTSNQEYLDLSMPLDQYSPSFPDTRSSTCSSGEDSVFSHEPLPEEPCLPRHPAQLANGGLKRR
# [1] = enzyme 0.01 nM, ATP 100 μM, read-out: FGFR2 IC50
Compound,IC50 (FGFR2; [1]) [nM],IC50 (FGFR3 enzyme (Millipore)) [nM],IC50 (FGFR1) [nM],IC50 (FGFR2) [nM]
"COc1cc(CCc2cnc3[nH]c(-c4cn[nH]c4)cc3n2)cc(OC)c1 [Example 29, 2-[2-(3,5-dimethoxyphenyl)ethyl]-6-(1H-pyrazol-4-yl)-5H-pyrrolo[2,3-b]pyrazine]",< 100,100 to 500,< 100,
"COc1cc(CCc2cnc3[nH]c(-c4ccnc(C(=O)N5CC(O)C5)c4)cc3n2)cc(OC)c1 [Example 75, (4-(2-(3,5-Dimethoxyphenethyl)-5H-pyrrolo[2,3-b]pyrazin-6-yl)pyridin-2-yl)(3-hydroxyazetidin-1-yl)methanone]",< 100,100 to 500,< 100,
"COc1cc(CCc2cnc3[nH]c(-c4ccc(C(=O)N(C)C)nc4)cc3n2)cc(OC)c1 [Example 59, 5-(2-(3,5-Dimethoxyphenethyl)-5H-pyrrolo[2,3-b]pyrazin-6-yl)-N,N-dimethylpicolinamide]",< 100,100 to 500,< 100,
"COc1cc(CCc2cnc3[nH]c(C4=CCN(C)CC4)cc3n2)cc(OC)c1 [Example 23, 2-[2-(3,5-dimethoxyphenyl)ethyl]-6-(1-methyl-1,2,3,6-tetrahydropyridin-4-yl)-5H-pyrrolo[2,3-b]pyrazine]",< 100,100 to 500,< 100,
"COc1cc(CCc2cnc3[nH]c(-c4cnn(C5CCN(C)CC5)c4)cc3n2)cc(OC)c1 [Example 37, 2-[2-(3,5-dimethoxyphenyl)ethyl]-6-[1-(1-methylpiperidin-4-yl)-1H-pyrazol-4-yl]-5H-pyrrolo[2,3-b]pyrazine]",< 100,100 to 500,< 100,
"COc1cc(CCc2cnc3[nH]c(-c4cnn(C)c4)cc3n2)cc(OC)c1 [Example 30, 2-[2-(3,5-dimethoxyphenyl)ethyl]-6-(1-methyl-1H-pyrazol-4-yl)-5H-pyrrolo[2,3-b]pyrazine]",< 100,100 to 500,< 100,
"CNC(=O)c1c(-c2ccc(N3CCN(C)CC3)cc2)[nH]c2ncc(CCc3cc(OC)cc(OC)c3)nc12 [Example 50, 2-[2-(3,5-dimethoxyphenyl)ethyl]-N-methyl-6-[4-(4-methylpiperazin-1-yl)phenyl]-5H-pyrrolo[2,3-b]pyrazine-7-carboxamide]",< 100,500 to 2700,< 100,
"COc1cc(CCc2cnc3[nH]c(-c4ccc5cnn(C)c5c4)cc3n2)cc(OC)c1 [Example 63, 2-(3,5-Dimethoxyphenethyl)-6-(1-methyl-1H-indazol-6-yl)-5H-pyrrolo[2,3-b]pyrazine]",< 100,100 to 500,< 100,
"COc1cc(CCc2cnc3[nH]c(-c4ccnc(N5CCN(C)CC5)c4)cc3n2)cc(OC)c1 [Example 55, 2-(3,5-Dimethoxyphenethyl)-6-(2-(4-methylpiperazin-1-yl)pyridin-4-yl)-5H-pyrrolo[2,3-b]pyrazine]",< 100,100 to 500,< 100,
"COc1cc(CCc2cnc3[nH]c(-c4ccc(C(F)(F)F)cc4)cc3n2)cc(OC)c1 [Example 8, 2-[2-(3,5-dimethoxyphenyl)ethyl]-6-[4-(trifluoromethyl)phenyl]-5H-pyrrolo[2,3-b]pyrazine]",,100 to 500,< 100,100 to 500
"COc1cc(CCc2cnc3[nH]c(-c4cnn(CCO)c4)cc3n2)cc(OC)c1 [Example 38, 2-(4-{2-[2-(3,5-dimethoxyphenyl)ethyl]-5H-pyrrolo[2,3-b]pyrazin-6-yl}-1H-pyrazol-1-yl)ethanol]",< 100,100 to 500,< 100,
"COc1cc(CCc2cnc3[nH]c(-c4c(F)cccc4F)cc3n2)cc(OC)c1 [Example 4, 6-(2,6-difluorophenyl)-2-(3,5-dimethoxyphenethyl)-5H-pyrrolo[2,3-b]pyrazine]",,500 to 2700,< 100,100 to 500
"COc1cc(CCc2cnc3[nH]c(-c4ccnc(C(=O)N(C)C)c4)cc3n2)cc(OC)c1 [Example 74, 4-(2-(3,5-Dimethoxyphenethyl)-5H-pyrrolo[2,3-b]pyrazin-6-yl)-N,N-dimethylpicolinamide]",< 100,100 to 500,< 100,
